Source: ChEMBL document CHEMBL4334505, “Tri- and Diterpenoids from Stillingia loranthacea as Inhibitors of Zika Virus Replication” (J Nat Prod, 2019)
Calls of active or inactive are those of the source. The calls are words filed in the database; no cut-off is given here.

What was measured:
[1] = system: Vero; assay: (§1) Cytotoxicity against African green monkey Vero cells assessed as reduction in cell viability measured after 1 hr by MTT assay; assay type: cell-based; settings: chlorocebus sabaeus, vero, 1 h
[2] = as §1; assay type: cell-based; settings: chlorocebus sabaeus, Vero cells
[3] = system: Zika virus; assay: Antiviral activity against Zika virus PE243 infected in African green monkey Vero cells assessed as reduction in viral replication by measuring viral titer per ml of cells at CC20 incubated for 5 days by standard TCID50 method (reference value: 6.7); assay type: functional
[4] = system: Zika virus; assay: Antiviral activity against Zika virus PE243 infected in African green monkey Vero cells assessed as reduction in viral replication by measuring viral titer at CC20 incubated for 5 days by standard TCID50 method; assay type: functional, organism-based
[5] = system: Vero; assay: (§2) Cytotoxicity against African green monkey Vero cells assessed as reduction in cell viability measured after 120 hrs by MTT assay; assay type: cell-based; settings: chlorocebus sabaeus, vero, 120 h
[6] = as §2; assay type: cell-based; settings: chlorocebus sabaeus, Vero cells

## CCCCCCCCCCCCCCCC(=O)O[C@@H]1[C@@H](C)[C@]2(O)[C@@H]3C=C(C)C(=O)[C@@H]3CC(C=O)=C[C@H]2[C@@H]2C(C)(C)[C@]12OC(C)=O
[1]
  CC20: 8.7 to 328 µM
[2]
  CC50 at 1 h: 24.6 to 848 µM

## CCCCCCCC/C=C\CCCC(=O)O[C@@]12C[C@@H](C)[C@@]3(O)[C@@H](C=C(CO)C[C@]4(O)C(=O)C(C)=C[C@@H]34)[C@@H]1C2(C)C
[3]
  log10 TCID50: 1.8
[4]
  inhibition: Active
[1]
  CC20: 8.7 to 328 µM
[2]
  CC50 at 1 h: 24.6 to 848 µM

## CC1(C)CC[C@@H]2C(=O)C=C3[C@]4(C)CC[C@@H]5[C@](C)(CC[C@@H](OC(=O)c6ccccc6)[C@@]5(C)C(=O)O)[C@H]4CC[C@@]3(C)[C@@H]2C1
[1]
  CC20: 8.7 to 328 µM
[2]
  CC50 at 1 h: 24.6 to 848 µM

## CC/C(C)=C/C(=O)O[C@@H]1[C@H](C)C[C@H]2O[C@]1(O)[C@@H](O)[C@@]1(C)CC[C@H](O1)C(C)(C)/C=C/[C@H](C)C2=O
[1]
  CC20: 8.7 to 328 µM

## CC(=O)O[C@H](C)/C(C)=C/C(=O)O[C@@H]1[C@H](C)C[C@H]2O[C@]1(O)[C@@H](O)[C@@]1(C)CC[C@H](O1)C(C)(C)/C=C/[C@H](C)C2=O
[1]
  CC20: 8.7 to 328 µM

## CSc1ncnc2c1ncn2[C@@H]1O[C@H](CO)[C@@H](O)[C@H]1O
[3]
  log10 TCID50: 5.4
[5]
  CC20: 60.5 µM
[6]
  CC50 at 120 h: 291 µM

## CCCCCCCCCCCCCCCC(=O)O[C@@H]1[C@@H](C)[C@]2(O)[C@@H]3C=C(C)C(=O)[C@@H]3CC(CO)=C[C@H]2[C@@H]2C(C)(C)[C@]12OC(C)=O
[4]
  inhibition: Active
[1]
  CC20: 8.7 to 328 µM
[2]
  CC50 at 1 h: 24.6 to 848 µM

## C/C(=C\C(=O)O[C@@H]1[C@H](C)C[C@H]2O[C@]1(O)[C@@H](O)[C@@]1(C)CC[C@H](O1)C(C)(C)/C=C/[C@H](C)C2=O)C(C)O (stereo partly specified)
[1]
  CC20: 8.7 to 328 µM

## CCCCCCCCCCCC(=O)O[C@@]12C[C@@H](C)[C@@]3(O)[C@@H](C=C(C=O)C[C@]4(O)C(=O)C(C)=C[C@@H]34)[C@@H]1C2(C)C
[1]
  CC20: 8.7 to 328 µM
[2]
  CC50 at 1 h: 24.6 to 848 µM

## CCCCCCCCCCCC(=O)O[C@@]12C[C@@H](C)[C@@]3(O)[C@@H](C=C(CO)C[C@]4(O)C(=O)C(C)=C[C@@H]34)[C@@H]1C2(C)C
[4]
  inhibition: Active
[1]
  CC20: 8.7 to 328 µM
[2]
  CC50 at 1 h: 24.6 to 848 µM

## CCCCCCCCCCCCCC(=O)O[C@@]12C[C@@H](C)[C@@]3(O)[C@@H](C=C(CO)C[C@]4(O)C(=O)C(C)=C[C@@H]34)[C@@H]1C2(C)C
[4]
  inhibition: Active
[1]
  CC20: 8.7 to 328 µM
[2]
  CC50 at 1 h: 24.6 to 848 µM

## CC1(C)CC[C@@H]2C(=O)C=C3[C@]4(C)CC[C@@H]5[C@](C)(CC[C@@H](OC(=O)/C=C/c6ccccc6)[C@@]5(C)C(=O)O)[C@H]4CC[C@@]3(C)[C@@H]2C1
[3]
  log10 TCID50: 1.7
[4]
  inhibition: Active
[1]
  CC20: 8.7 to 328 µM
[2]
  CC50 at 1 h: 24.6 to 848 µM

## CCCCCCCC/C=C\CCCC(=O)O[C@@]12C[C@@H](C)[C@@]3(O)[C@@H](C=C(C=O)C[C@]4(O)C(=O)C(C)=C[C@@H]34)[C@@H]1C2(C)C
[1]
  CC20: 8.7 to 328 µM
[2]
  CC50 at 1 h: 24.6 to 848 µM
